Measured values reported in ChEMBL document CHEMBL3097993, “Synthesis and initial biological evaluation of new mimics of the LXR-modulator 22(S)-hydroxycholesterol” (2014).
Active and inactive are the calls of the source. The calls are words filed in the database; no cut-off is given here.

Assays:
[1] = target: T1, Liver X receptor (Homo sapiens) (UniProt Q13133+P55055); assay: Agonist activity at LXR in human myotubes assessed as upregulation of SCD1 expression at 10 uM after 4 days by qPCR analysis
[2] = (§1) Induction of lipogenesis in human myotubes at 10 uM after 4 days by scintillation counting analysis in presence of [1-14C]acetate relative to control; format: functional
Homo sapiens [3] = species: Homo sapiens; assay: Induction of lipogenesis in human myotubes at 1 uM after 4 days by scintillation counting analysis in presence of [1-14C]acetate; format: functional
Homo sapiens [4] = species: Homo sapiens; assay: Inhibition of tularic-induced lipogenesis in human myotubes at 10 uM after 4 days by scintillation counting analysis in presence of [1-14C]acetate relative to control; format: functional
[5] = target: T1, Liver X receptor (Homo sapiens); assay: Antagonist activity at LXR in human myotubes assessed as downregulation of SCD1 expression at 10 uM after 4 days by qPCR analysis
Homo sapiens [6] = species: Homo sapiens; assay: as §1; format: functional

**Q.** Which results are given for `CC(C)CC[C@H](O)[C@@H](C)COCc1ccc(S(=O)(=O)N2CCCC2)cc1`?
**A.** Activity [1]: Active; fold change (FC) [2]: 2

**Q.** With `O=S(=O)(c1ccccc1)N(CC(F)(F)F)c1ccc(C(O)(C(F)(F)F)C(F)(F)F)cc1` as the molecule, how does the Activity (Homo sapiens [3]) read?
**A.** Active

**Q.** With `CC(C)CC[C@H](O)[C@@H](C)[C@H]1CC[C@H]2[C@@H]3CC=C4C[C@@H](O)CC[C@]4(C)[C@H]3CC[C@]12C` as the molecule, how does the inhibition (Homo sapiens [4]) read?
**A.** Active

**Q.** And the Activity [5]?
**A.** Active

**Q.** What about the Activity (Homo sapiens [6]) of the same molecule?
**A.** inactive
